The record followed here is patent publication US12209092B2, “Inhibitors of GLI1 as therapeutic agents” (NEW YORK UNIVERSITY, priority 2018, dated 2025).

Read-outs that look alike come from different tables or passages of the source. Bounds are passed on as bounds.

For this experiment, the system named is Gli1-mediated transcription. Briefly: Gli1-mediated transcriptional luciferase reporter assay. It is filed as cell-based. The conditions noted are these: Shh-LIGHT2 cells, antagonist mode, purmorphamine 1.5 μM stimulation, 24 h. The protocol:
Gli1-mediated transcriptional luciferase reporter assay was performed using Shh-LIGHT2 cells in order to evaluate the effects on activation and inhibition of Gli1-mediated transcription by the compounds of the disclosure. Brief assay procedure is provided below. […] Shh-LIGHT2 cells were harvested from about 80% confluent 10-cm dish using 0.25% Trypsin-EDTA solution. Medium was removed, and cells were washed with 5 mL DPBS and aspirated. Then, 1 mL 0.25% Trypsin-EDTA solution was added to a 10-cm dish. The dish was placed in the incubator for 1-3 minutes, or until cells have detached. 3 mL of cell growth medium (DMEM, 10% FBS, 1% PenStrep, 1% sodium pyruvate, and 1% GlutaMax) was added to the 10-cm dish, and the contents were transferred to a conical tube. […] The cell assay plate was removed from incubator after cells reached confluency. The culture medium was then manually removed from the cell plates, and the plates were centrifuged at 200 rpm for 30 seconds. […] After 30 min incubation of antagonist, cells were stimulated with agonist (purmorphamine, 5 μL, 1.5 μM final), then incubate for 24 h at 37° C./5% CO2. […] Luciferase assay: After incubation, the cell assay plate was allowed to acclimate to room temperature. Then, 20 μL of Duo-Glo® Luciferase Reagent (Promega) was added to each well of cell assay plate. The plate was briefly spun down, mixed, and incubated for 30 minutes at room temperature. The cell plate was read using luminometer for firefly luminescence activity. Then, 20 μL of Duo-Glo® Step&Glo® Reagent (Promega) was added to each well of cell assay plate. The plate was briefly spun down, mixed, and incubated for 30 minutes at room temperature. The cell plate was read using luminometer for Renilla luminescence activity. Ratio of firefly: Renilla luminescence was calculated for each well. The compound well ratio was normalized to the ratio from a control well.
For orientation: Reporter assays use an easily measured gene product as a stand-in for the process of interest.

Where [1] appears, read: firefly luminescence, read-out: Gli1 IC50 firefly.
Setting [2] is: ratio of firefly:Renilla luminescence, read-out: Gli1 IC50 firefly:Renilla ratio.

On to `Clc1ccc2c(c1)CC(N1CCc3nc(-c4cccc(Cl)c4Cl)[nH]c3C1)CC2` (stereo not shown) [Example 21, 5-(7-chloro-1,2,3,4-tetrahydronaphthalen-2-yl)-2-(2,3-dichlorophenyl)-4,5,6,7-tetrahydro-3H-imidazo[4,5-c]pyridine], for which the IC50 runs as follows: under setting [1], 0.5 to 0.99 µM; under setting [2], 0.5 to 0.99 µM.
With `Clc1ccccc1-c1nc2c([nH]1)CN(C1CCc3cccc(Br)c3C1)CC2` (stereo not shown) [Example 26, 5-(8-bromo-1,2,3,4-tetrahydronaphthalen-2-yl)-2-(2-chlorophenyl)-4,5,6,7-tetrahydro-3H-imidazo[4,5-c]pyridine], the IC50 is less than 0.1 µM under setting [1] and 0.1 to 0.49 µM under setting [2].
On to `Clc1ccccc1-c1nc2c([nH]1)CN(C1Cc3ccccc31)CC2` (stereo not shown) [Example 43, 5-(bicyclo[4.2.0]octa-1(6),2,4-trien-7-yl)-2-(2-chlorophenyl)-4,5,6,7-tetrahydro-3H-imidazo[4,5-c]pyridine], for which the IC50 is more than 30 µM under setting [1] and 1 to 50 µM under setting [2].
Regarding `COc1ccc2c(c1)CC(N1CCc3nc(-c4ccccc4Cl)[nH]c3C1)CC2` (stereo not shown) [Example 15, 2-(2-chlorophenyl)-5-(7-methoxy-1,2,3,4-tetrahydronaphthalen-2-yl)-4,5,6,7-tetrahydro-3H-imidazo[4,5-c]pyridine], the IC50 under setting [1] lay within 0.1 to 0.49 µM and the IC50 under setting [2] was 0.1 to 0.49 µM.
Regarding `Cc1cn(-c2ccc3c(c2)CCC(N2CCc4nc(-c5ccccc5Cl)[nH]c4C2)C3)cn1` (stereo not shown) [Example 32, 2-(2-chlorophenyl)-5-(6-(4-methyl-1H-imidazol-1-yl)-1,2,3,4-tetrahydronaphthalen-2-yl)-4,5,6,7-tetrahydro-3H-imidazo[4,5-c]pyridine], the IC50 reads like this: under setting [1], 1 to 50 µM; under setting [2], 1 to 50 µM.
Consider `Clc1ccc2c(c1)CC(N1CCc3nc(-c4ccccc4Br)[nH]c3C1)CC2` (stereo not shown) [Example 28, 2-(2-bromophenyl)-5-(7-chloro-1,2,3,4-tetrahydronaphthalen-2-yl)-4,5,6,7-tetrahydro-3H-imidazo[4,5-c]pyridine], for which the IC50 lay within 0.1 to 0.49 µM under setting [1] and 0.1 to 0.49 µM under setting [2].
Take `COc1cccc2c1CC(N1CCc3nc(-c4ccccc4Cl)[nH]c3C1)CC2` (stereo not shown) [Example 16, 2-(2-chlorophenyl)-5-(8-methoxy-1,2,3,4-tetrahydronaphthalen-2-yl)-4,5,6,7-tetrahydro-3H-imidazo[4,5-c]pyridine]: the IC50 reads like this: under setting [1], less than 0.1 µM; under setting [2], 0.1 to 0.49 µM.
`Clc1cnccc1-c1nc2c([nH]1)CN(C1CCc3cccc(Cl)c3C1)CC2` (stereo not shown) [Example 17, 5-(8-chloro-1,2,3,4-tetrahydronaphthalen-2-yl)-2-(3-chloropyridin-4-yl)-4,5,6,7-tetrahydro-3H-imidazo[4,5-c]pyridine]: the IC50 by setting is: under setting [1], 0.5 to 0.99 µM; under setting [2], 1 to 50 µM.
Turning to `Clc1ccccc1-c1nc2c([nH]1)CN(C1CCc3ccc(C4CC4)cc3C1)CC2` (stereo not shown) [Example 34, 2-(2-chlorophenyl)-5-(7-cyclopropyl-1,2,3,4-tetrahydronaphthalen-2-yl)-4,5,6,7-tetrahydro-3H-imidazo[4,5-c]pyridine], the IC50 is 0.1 to 0.49 µM under setting [1] and 0.1 to 0.49 µM under setting [2].
As for `Clc1cccnc1-c1nc2c([nH]1)CN(C1CCc3cccc(Cl)c3C1)CC2` (stereo not shown) [Example 77, 5-(8-chloro-1,2,3,4-tetrahydronaphthalen-2-yl)-2-(3-chloropyridin-.2-yl)-4,5,6,7-tetrahydro-3H-imidazo[4,5-c]pyndine], the IC50 is, setting by setting: under setting [1], 1 to 50 µM; under setting [2], 1 to 50 µM.
Turning to `Fc1ccccc1-c1nc2c([nH]1)CN(C1CCc3ncccc3C1)CC2` (stereo not shown) [Example 55, 6-(2-(2-fluorophenyl)-3,4,6,7-tetrahydro-5H-imidazo[4,5-c]pyridin-5-yl)-5,6,7,8-tetrahydroquinoline], the IC50 lay in the range of 1 to 50 µM under setting [1] and 1 to 50 µM under setting [2].
Consider `CN1C2=C(CCN([C@@H]3CCc4cccc(Cl)c4C3)C2)NC1c1ccccc1Cl` (stereo partly drawn) [Example 18-R, 5-((R)-8-chloro-1,2,3,4-tetrahydronaphthalen-2-yl)-2-(2-chlorophenyl)-3-methyl-2,3,4,5,6,7-hexahydro-1H-imidazo[4,5-c]pyridine], for which the IC50 by setting is: under setting [1], less than 0.1 µM; under setting [2], less than 0.1 µM.
`Cn1c(-c2ccccc2Cl)nc2c1CC(N1Cc3cccc(Cl)c3C1)CC2` (stereo not shown) [Example 189, 6-(4-chloroisoindolin-2-yl)-2-(2-chlorophenyl)-1-methyl-4,5,6,7-tetrahydro-1H-benzo[d]imidazole]: the IC50 by setting is: under setting [1], less than 0.1 µM; under setting [2], less than 0.1 µM.
For `CN1C2=C(CCN([C@H]3CCc4cccc(Cl)c4C3)C2)NC1c1ccccc1Cl` (stereo partly drawn) [Example 18-S, 5-((S)-8-chloro-1,2,3,4-tetrahydronaphthalen-2-yl)-2-(2-chlorophenyl)-3-methyl-2,3,4,5,6,7-hexahydro-1H-imidazo[4,5-c]pyridine], the IC50 is, setting by setting: under setting [1], 0.1 to 0.49 µM; under setting [2], 0.1 to 0.49 µM.
Take `Clc1ccccc1-c1nc2c([nH]1)CN(C1CCc3ccc(Br)cc3C1)CC2` (stereo not shown) [Example 27, 5-(7-bromo-1,2,3,4-tetrahydronaphthalen-2-yl)-2-(2-chlorophenyl)-4,5,6,7-tetrahydro-3H-imidazo[4,5-c]pyridine]: the IC50 runs as follows: under setting [1], 0.1 to 0.49 µM; under setting [2], less than 0.1 µM.
Turning to `Clc1ccccc1-c1nc2c([nH]1)CN(C1CCc3cccc(Cl)c3C1)CC2` (stereo not shown) [Example 1, 5-(8-chloro-1,2,3,4-tetrahydronaphthalen-2-yl)-2-(2-chlorophenyl)-4,5,6,7-tetrahydro-3H-imidazo[4,5-c]pyridine], the IC50 by setting is: under setting [1], less than 0.1 µM; under setting [2], 0.1 to 0.49 µM.
`Clc1ccccc1-c1nc2c([nH]1)CN(C1Cc3cccc(Cl)c3C1)CC2` (racemic) [Example 12, 5-(4-chloro-2,3-dihydro-1H-inden-2-yl)-2-(2-chlorophenyl)-4,5,6,7-tetrahydro-3H-imidazo[4,5-c]pyridine]: the IC50 under setting [1] fell in the range of 0.1 to 0.49 µM and the IC50 under setting [2] lay in the range of 0.1 to 0.49 µM.
Consider `Clc1ccccc1-c1nc2c([nH]1)CN(C1CCc3cccc(C4CC4)c3C1)CC2` (stereo not shown) [Example 36, 2-(2-chlorophenyl)-5-(8-cyclopropyl-1,2,3,4-tetrahydronaphthalen-2-yl)-4,5,6,7-tetrahydro-3H-imidazo[4,5-c]pyridine], for which the IC50 lay within 1 to 50 µM under setting [1] and 0.5 to 0.99 µM under setting [2].
In the same order, the values of `Clc1ccccc1-c1nc2c([nH]1)CC(N1Cc3cccc(Cl)c3C1)CC2` (stereo not shown) [Example 186, 6-(4-chloroisoindolin-2-yl)-2-(2-chlorophenyl)-4,5,6,7-tetrahydro-1H-benzo[d]imidazole] are less than 0.1 µM and less than 0.1 µM.
For the compound `Clc1cc(Cl)c2c(c1)CCC(N1CCc3nc(-c4ccccc4Cl)[nH]c3C1)C2` (stereo not shown) [Example 25, 2-(2-chlorophenyl)-5-(6,8-dichloro-1,2,3,4-tetrahydronaphthalen-2-yl)-4,5,6,7-tetrahydro-3H-imidazo[4,5-c]pyridine], the IC50 lay within 1 to 50 µM under setting [1] and 1 to 50 µM under setting [2].
As to `Clc1ccccc1-c1nc2c([nH]1)C[C@@H](N1CCc3cccc(Cl)c3C1)CC2` [Example 185-S, (S)-8-chloro-2-(2-(2-chlorophenyl)-4,5,6,7-tetrahydro-1H-benzo[d]imidazol-6-yl)-1,2,3,4-tetrahydroisoquinoline], the IC50 under setting [1] was 0.1 to 0.49 µM and the IC50 under setting [2] was less than 0.1 µM.
Consider `COc1cccc2c1CC(N1CCc3nc(-c4ccccc4F)[nH]c3C1)CC2` (stereo not shown) [Example 9, 2-(2-fluorophenyl)-5-(8-methoxy-1,2,3,4-tetrahydronaphthalen-2-yl)-4,5,6,7-tetrahydro-3H-imidazo[4,5-c]pyridine], for which the IC50 lay in the range of 0.5 to 0.99 µM under setting [1] and 1 to 50 µM under setting [2].
For the compound `Cn1c(-c2ccc(C3CC3)cc2Cl)nc2c1CN(C1CCc3ccc(Cl)cc3C1)CC2` (stereo not shown) [Example 163, 5-(7-chloro-1,2,3,4-tetrahydronaphthalen-2-yl)-2-(2-chloro-4-cyclopropylphenyl)-3-methyl-4,5,6,7-tetrahydro-3H-imidazo[4,5-c]pyridine], the IC50 is, setting by setting: under setting [1], less than 0.1 µM; under setting [2], less than 0.1 µM.
Take `Clc1ccc2c(c1)CC(N1CCc3nc(-c4ccccc4Cl)[nH]c3C1)C2` (stereo not shown) [Example 19, 5-(5-chloro-2,3-dihydro-1H-inden-2-yl)-2-(2-chlorophenyl)-4,5,6,7-tetrahydro-3H-imidazo[4,5-c]pyridine]: the IC50 is, setting by setting: under setting [1], 0.1 to 0.49 µM; under setting [2], 0.1 to 0.49 µM.
On to `Clc1ccccc1-c1nc2c([nH]1)CN([C@H]1CCc3cccc(Cl)c3C1)CC2` [Example 1-S, (S)-5-(8-chloro-1,2,3,4-tetrahydronaphthalen-2-yl)-2-(2-chlorophenyl)-4,5,6,7-tetrahydro-3H-imidazo[4,5-c]pyridine], for which the IC50 was 0.1 to 0.49 µM under setting [1] and 0.1 to 0.49 µM under setting [2].
Regarding `Clc1ccccc1-c1nc2c([nH]1)CC(N1CCc3cccc(Cl)c3C1)CC2` (stereo not shown) [Example 185, 8-chloro-2-(2-(2-chlorophenyl)-4,5,6,7-tetrahydro-1H-benzo[d]imidazol-6-yl)-1,2,3,4-tetrahydroisoquinoline], the IC50 runs as follows: under setting [1], less than 0.1 µM; under setting [2], less than 0.1 µM.
